The subject of one data set is BET proteins. As to conditions: cited from earlier work; for Bromodomain preference (BD1 vs BD2): BET proteins; for Affinity among BET family members: BRD2/BRD3/BRD4/BRDT, literature refs 17, 18.
For the next data set, the system named is TF-1 cells. The experiment in a line: RT-qPCR quantification of gene expression in TF-1 cells. Type of data set: cell-based, human. As to conditions: 200 nM; for HBB, HBG1/2 and HBE1 expression compared with JQ1: TF-1 cells, CPI-0610 reapplied daily, PLX51107 once at day 0. On the procedure:
(§1) K562, HEL, and HL-60 cells were cultured in RPMI 1640 medium supplemented with 10% FBS. TF-1 cells were cultured in RPMI 1640 medium supplemented with 10% FBS and 4 ng/mL GM-CSF. Before treatment, TF-1 cells were washed 4× with RPMI 1640 without supplements, and cultured in RPMI 1640 medium with 10% FBS but no GM-CSF for 24 hours. 4 ng/mL GM-CSF or 3 units/mL EPO were added at the time of treatment set up. K562, HEL, and HL-60 cells were cultured as normal until treatment set up. JQ1 (Sigma-Aldrich, SML1524), CPI-0610 (Selleck Chemicals, S7853), and PLX51107 (MedChemExpress, HY-111422) were dissolved in DMSO to 10 mM concentration and stored in −80° C. All three inhibitors were applied to cells at 200 nM, with parallel DMSO treatment (0.002%) as control. JQ1 and PLX51107 were added to cell culture at day 0 without additional treatments up to day 5. CPI-0610 was reapplied to the cells on a daily basis.
(§2) cDNA libraries for mRNAs were made from 1 μg input RNA using High-Capacity cDNA Reverse Transcription Kit (ThermoFisher, 4368814). Gene expressions were quantified using Power SYBR Green PCR Master Mix (Thermofisher, 4367659). For microRNAs, cDNA libraries were made with Taqman Advanced miRNA cDNA Synthesis Kit (Thermofisher, A28007). miR-15A and miR-16-1 were quantified using the Taqman Advanced miRNA Assays (ThermoFisher, A25576) specific to hsa-miR-15a-5p (assay ID: 477858_mir) and hsa-miR-16-5p (assay ID: 477860_mir).
For orientation: Real-time PCR tracks product formation cycle by cycle.

A further data set concerns K562 cells. The experiment in a line: RT-qPCR quantification of gene expression in K562 cells. Type of data set: cell-based, human. Conditions: 200 nM, CPI-0610 reapplied daily, PLX51107 once at day 0. The method, then:
as §1, §2

A short description of data set [1]: Lifespan in culture medium. Type of data set: physicochemical.

Molecules are shown by their SMILES.

In the case of `Cc1noc2c1-c1ccccc1C(c1ccc(Cl)cc1)=N[C@H]2CC(N)=O` [CPI-0610], the “Bromodomain preference (BD1 vs BD2)” value in the data set with BET proteins is on record as “preference for the second bromodomain (BD2)”. For the same compound, in the data set on BET proteins, the “Affinity among BET family members” value was “comparable affinity”. In addition, the “HBB, HBG1/2 and HBE1 expression compared with JQ1” value in the data set with TF-1 cells and in the data set on K562 cells was “mimic the effects of JQ1” each time. The “Lifespan in culture medium” value in data set [1] is on record as “short lifespan”.

As for `Cc1noc(C)c1-c1cnc2c(-c3ccc(C(=O)O)cc3)cn([C@@H](C)c3ccccn3)c2c1` [PLX51107], the “Bromodomain preference (BD1 vs BD2)” value in the data set on BET proteins is listed as “preferentially binds to BD1”. In the data set with BET proteins, the “Affinity among BET family members” value was “somewhat lower affinity for BRDT”. For the same compound, the HBB expression result in the data set on TF-1 cells (TF-1 cells under proliferative condition) was “significantly suppressed”. The “HBB, HBG1/2 and HBE1 expression compared with JQ1” value with TF-1 cells and in the data set on K562 cells was “mimic the effects of JQ1” throughout.

These data come from patent US20220347186A1, “METHODS AND COMPOSITIONS FOR TREATING SICKLE CELL DISEASE AND THALASSEMIA” (THE UNIVERSITY OF CHICAGO, priority 2019, published 2022).
